US20090142363A1, “CYTOTOXIC T-CELL EPITOPE PEPTIDE AND USE THEREOF” (priority 2005, published 2009)
No end group written: not given here.

Experiments:
[1] = tested on: PBMCs of healthy adults reactive to the anti-HLA-A*24 antibody; experiment: Induction of specific CTLs from PBMCs, method for quantifying cells producing intracellular IFNγ; type: cell-based, human; parameters: key to specific CTL induction, cytokine quantification method: ∘: “open circle” indicates that the use of a candidate peptide enabled specific CTLs to be induced; x: “cross” indicates that specific CTLs was unable to be induced; details: for peptide-specific cytokine production in PBMCs derived from ten people with HLA-A*24 molecule: summary of Table 2; for CD8-positive, IFNγ-positive cells in UR: HIV peptides added for restimulation as negative control
Description: This induction method induces CTLs by adding peptides to culture media of PBMCs. Peptides are presented on antigen-presenting cells present among PBMCs, such as dendritic cells, B cells, macrophages, and certain types of T cells, whereby CTL precursor cells in PBMCs are stimulated to proliferate.
Peripheral blood collected from healthy adults that were reactive to the anti-HLA-A*24 antibody was centrifuged at 3,000 rpm for 5 to 10 minutes. The resulting supernatant plasma was collected. The non-plasma portion was processed according to a conventional method to isolate PBMCs. The characteristic of the present method is the addition of several % of plasma to an induction medium. In the present invention, a favorable result was obtained by adding 5% plasma. The medium is prepared by adding appropriate additives and antibiotics to a medium commonly used for cell culture. The CTL induction medium used in the present invention was RPMI1640 Hepes modify (Sigam) supplemented with 2-mercapotethanol, L-glutamine, and the antibiotics streptomycin and penicillin. In addition to these, insulin, transferrin, selenious acid, pyruvic acid, human serum albumin, solution of non-essential amino acids, and the like may be added. 1 to 3×10^6 PBMCs were suspended in 1 to 2.5 ml of the culture medium. A candidate peptide was added to the cells at a concentration of 1 to 20 μg/ml. The concentration of peptide can be altered depending on the solubility of the peptide. The peptide was added at 10 μg/ml. After two days, IL-2 was added at a final concentration of 20 to 100 U/ml. Round-bottomed culture dishes that allow the exchange of carbon dioxide gas are preferably used to co-culture PBMCs with peptides. In the context of the present invention, 14-ml round-bottomed polypropylene tubes (Becton Dikinson) or 96-well U-bottomed cell culture microtest plates (Becton Dikinson) were used. The adenovirus-specific CTLs were confirmed after about two and four weeks of culture. The cells were stimulated again with the peptide at 10 μg/ml after about two weeks of culture. When the induction of adenovirus-specific CTLs was confirmed, the cells were further stimulated with peptide-pulsed antigen-presenting cells to establish CTL lines.
Approximately 1/10 to all of the cells induced by the above-described method were transferred into 96-well U-bottomed cell culture microtest plates, and the peptide used for the induction was added thereto at a final concentration of 0.01 to 0.05 μg/ml. Then, an intracellular protein transport inhibitor (for example, brefeldin A, monensin, or such) was added, and the cells were cultured in a 5% CO2 incubator at 37° C. for 5 to 16 hours. After culture, the cells were washed, and phycoerythrin (PE)-labeled MHC-tetramer reagent and phycoerythrin-Cy5(PC5)-labeled CD8 antibody (Beckman Coulter) were added thereto. The resulting mixture was allowed to stand at room temperature for 15 to 30 minutes. After washing, the cells were fixed with 4% formaldehyde at 4° C. for 15 minutes and washed with an excess amount of washing solution. After membrane permeabilization treatment with 0.1% saponin, an FITC-labeled anti-IFNγ antibody (Beckman Coulter) was added, and reacted at room temperature for 15 to 30 minutes. After washing, the proportion of IFNγ-positive cells in T cells or MHC-tetramer reagent-positive cells was determined using a flow cytometer.
PBMCs derived from ten people with HLA-A*24 molecule were tested using 10 types of peptides. […] Thus, these six types of candidate epitope peptides serve as adenovirus-specific CTL epitope peptides. Since the adenovirus-specific CTL epitope peptides have the HLA-A*24-binding motif, they are likely to be HLA-A*2402-restricted epitope peptides, which are carried by 60% or more of the Japanese people. In the context of the results described above, MHC-tetramer reagents were synthesized using five types of epitope peptides, and their utility was tested.

[2] = tested on: peripheral blood / PBMCs / peptide-induced CTL lines of HLA-A*24 donors; experiment: Staining of peripheral blood, PBMCs or peptide-induced CTL lines with MHC-tetramer reagents; type: cell-based, human; details: for profile of tetramer-positive cells: donor ID*24-12, peptide-induced cells; for population of CD8-negative, tetramer reagent-positive cells in the UL / population of CD8-positive, tetramer-positive cells in the UR: peptide-induced CTL lines; for population of CD8-negative, tetramer reagent-positive cells in the UL: FIG. 5, VYS-Tet: donor ID*24-1, *24-3, *24-11, *24-12, *24-14; for staining pattern at day 10 compared to Negative Tetramer reagent: donor ID*24-8, 10 days culture with peptide; for population of CD8-positive, tetramer-positive cells in the UR: donor ID*24-2 and *24-8, FIG. 5
Description: MBL Co. where the present inventors are affiliated with has acquired exclusive patent licensing rights in Japan for MHC-tetramer reagents (U.S. Pat. No. 5,635,363; French Application No. FR9911133; and U.S. Pat. Nos. 5,723,584, 5,874,239, 5,932,433, and 6,265,552) from Beckman Coulter Co. Based on the patents, PE-labeled MHC-tetramer reagents were prepared using adenovirus-specific CTL epitope peptides and HLA-A*2402 molecules.
Adenovirus-specific CTLs quantification was carried out using MHC-tetramer reagents that was prepared using CTL epitope peptides of the present invention, with peripheral blood, PBMCs isolated from peripheral blood, CTL lines induced using CTL epitope peptides as samples. Examples of quantification using PE-labeled MHC-tetramer reagents are described below. Labelling dyes may be used in an appropriate combination depending on the type of flow cytometer to be used, and is not limited to the examples described below.
Ten μl of a PE-labeled MHC-tetramer reagent, 20 μl of an FITC-labeled antibody for T cell (for example, CD8, CD4, or CD3), and such were added to 200 μl of collected peripheral blood. A CD45 antibody labeled with PC5 or such may also be added to eliminate nonspecific fluorescence due to contaminated erythrocytes. After gentle mixing, the mixture was allowed to stand at room temperature for 30 minutes. OptiLyse B was added, and erythrolysis and fixation was carried out according to the manufacturer's protocol. Two ml of PBS was added, stirred, and the cells were centrifuged at 400×g for 5 minutes. After the supernatant was removed by aspiration, the cells were resuspended in 500 μl of PBS and analyzed using a flow cytometer within 24 hours.
Ten μl of a PE-labeled MHC-tetramer reagent, 20 μl of an FITC-labeled T cell surface antibody (for example, CD8, CD4, or CD3), and such were added to an appropriate amount of PBMCs (10^5 to 10^6 cells) or a CTL line induced by use of CTL epitope peptides. A CD45 antibody labeled with PC5 or such may also be added to eliminate nonspecific fluorescence due to contaminated erythrocytes. After gentle mixing, the cells were allowed to stand at room temperature for 30 minutes. Three ml of PBS was added, stirred, and the cells were centrifuged at 400×g for 5 minutes. After the supernatant was removed by aspiration, the cells were resuspended in 500 μl of PBS. When a CTL line is used, 7-AAD Viability Dye (Non-viable cell detection reagent; MBL Co.) may be added to eliminate nonspecific fluorescence caused by non-viable cells. The cells were analyzed using a flow cytometer within 24 hours.
The results of staining obtained using the five types of MHC-tetramer reagents used to prepare the peptide-induced CTL lines are shown in FIG. 5.

[3] = PBMCs from donor ID*24-14 after 24 days of stimulation with LYA

Row | Substance | specific CTL induction, cytokine quantification method ([1]; donor ID *24-1) | specific CTL induction, cytokine quantification method ([1]; donor ID *24-2) | specific CTL induction, cytokine quantification method ([1]; donor ID *24-3) | specific CTL induction, cytokine quantification method ([1]; donor ID *24-5) | specific CTL induction, cytokine quantification method ([1]; donor ID *24-8) | specific CTL induction, cytokine quantification method ([1]; donor ID *24-10) | specific CTL induction, cytokine quantification method ([1]; donor ID *24-11) | specific CTL induction, cytokine quantification method ([1]; donor ID *24-12) | specific CTL induction, cytokine quantification method ([1]; donor ID *24-13) | specific CTL induction, cytokine quantification method ([1]; donor ID *24-14) | further results
1 | DYLSAANML | ∘ | ∘ | x | x | x | ∘ | x | ∘ | x | x | CD8-positive, IFNγ-positive (producing) cells in UR ([1]; donor *24-12, restimulation with the same peptide as used in the induction, % in PBMCs): 0.49%; specific CTL induction confirmed by CD8-positive, IFNγ-positive cells versus HIV peptide ([1]; donor ID*24-12, FIG. 3e-h): specific CTL induction was confirmed; peptide-specific cytokine production in PBMCs derived from ten people with HLA-A*24 molecule [1]: induce cytokine production in a peptide-specific manner; number of persons with peptide-specific IFNγ production / CTL induction ([1]; ten persons tested): four of the ten persons
2 | GYKDRMYSF | x | x | x | x | ∘ | x | x | x | x | x | specific CTL induction confirmed by CD8-positive, IFNγ-positive cells versus HIV peptide ([1]; donor ID*24-8, FIG. 3a-d): induced specific CTLs; peptide-specific cytokine production in PBMCs derived from ten people with HLA-A*24 molecule [1]: induce cytokine production in a peptide-specific manner
3 | HLA-A*2402 DYLSAANML (Seq Id No: 1) Tetramer Reagent [DYL-Tet] | – | – | – | – | – | – | – | – | – | – | profile of tetramer-positive cells [2]: no relevant profile
4 | HLA-A*2402 LYANSAHAL (Seq Id No: 2) Tetramer Reagent [LYA-Tet] | – | – | – | – | – | – | – | – | – | – | CD3-positive, LYA-Tet-positive cells [2, 3]: 1.13%; CD4-positive, LYA-Tet-positive cells [2, 3]: 0.09%; CD8-positive, LYA-Tet-positive cells [2, 3]: 0.18%; population of CD8-negative, tetramer reagent-positive cells in the UL [2]: detected
5 | HLA-A*2402 LYSNVALYL (Seq Id No: 5) Tetramer Reagent [LYS-Tet] | – | – | – | – | – | – | – | – | – | – | profile of tetramer-positive cells [2]: no relevant profile
6 | HLA-A*2402 TYFNLGNKF (Seq Id No: 4) Tetramer Reagent [TYF-Tet] | – | – | – | – | – | – | – | – | – | – | staining pattern at day 10 compared to Negative Tetramer reagent [2]: clear CD8-positive, MHC-tetramer-positive pattern; population of CD8-positive, tetramer-positive cells in the UR [2]: clearly detected
7 | HLA-A*2402 VYSGSIPYL (SEQ ID NO: 3) Tetramer Reagent [VYS-Tet] | – | – | – | – | – | – | – | – | – | – | staining pattern at day 10 compared to Negative Tetramer reagent [2]: clear CD8-positive, MHC-tetramer-positive pattern; population of CD8-negative, tetramer reagent-positive cells in the UL [2]: detected; population of CD8-positive, tetramer-positive cells in the UR [2]: clearly detected
8 | KYTPSNVTL | x | x | x | x | x | x | x | x | x | x | –
9 | NYIGFRDNF | x | x | x | x | x | x | x | x | x | x | –
10 | NYNIGYQGF | x | x | x | x | x | x | x | x | x | x | –
11 | QYDPVAALF [CMV pp65, reference compound] | – | – | – | – | – | – | – | – | – | – | specific CTLs (CD8-positive MHC-tetramer reagent-positive cells, UR) ([2]; donor ID*24-2, 13 days stimulation with the peptide, then HIV peptide added, % of whole viable cells): 28.8%
12 | RYLRDQQLL [HIV peptide, reference compound] | – | – | – | – | – | – | – | – | – | – | CD8-positive, IFNγ-positive cells in UR ([1]; donor *24-8): 0.62%; CD8-positive, IFNγ-positive cells in UR ([1]; donor *24-12): 0.18%
13 | SYQLLLDSL | x | x | x | x | x | x | x | x | x | x | –
